Converted amounts (≈) assume the structure as drawn. Bridge positions count the residues as written; N and C are the ends. Square brackets hold non-standard residues; d marks the D form. Peptide text beside a SMILES is read from it. * marks the point of attachment. Myristoyl = CCCCCCCCCCCCCC(=O)*; dOrn = NCCC[C@@H](N)C(=O)O; Orn = NCCC[C@H](N)C(=O)O; Dab = NCC[C@H](N)C(=O)O; Dap = NC[C@H](N)C(=O)O
How the values were obtained:
[1] = test system: Streptococcus pyogenes ATCC 19615; test: microbe, parasite or virus in culture; assay type: cell-based; conditions: for MIC (μg/mL) S. pyogenes ATCC 19615: ATCC 19615, 16 h
Procedure: (§1) All MIC assays were performed two independent times (n = 2) in 96‐well plates using a broth micro‐dilution method. The lowest concentration of that inhibited visible microbial growth was recorded as the MIC value.
(§2) For most of bacterial strains, overnight cultures were diluted 5000‐fold in LB broth. For E. faecium and S. aureus, overnight cultures were diluted 1000‐ and 10000‐fold in LB broth, respectively. 100 µL of diluted cells was mixed with 100 µL of LB broth containing each peptide ranging from 64 to 0.125 µg mL^−1 at 2‐fold serial dilutions.

[2] = test system: Klebsiella pneumoniae CRKP 5452; test: microbe, parasite or virus in culture; assay type: cell-based; conditions: for MIC (μg/mL) K. pneumoniae CRKP 5452: CRKP 5452, 16 h
Procedure: as §1, §2

[3] = test system: Acinetobacter baumannii 1104008; test: microbe, parasite or virus in culture; assay type: cell-based; conditions: for MIC (μg/mL) A. baumannii 1104008: 1104008, 16 h
Procedure: as §1, §2

[4] = test system: Staphylococcus aureus USA300; test: microbe, parasite or virus in culture; assay type: cell-based; conditions: for MIC (μg/mL) S. aureus USA300: USA300, 16 h
Procedure: as §1, §2

[5] = test system: Candida albicans ATCC 10231; test: MIC assay (YPD broth); assay type: cell-based; conditions: for MIC (μg/mL) C. albicans ATCC 10231: ATCC 10231, 16 h
Procedure: as §1
(§3) For fungal strains, overnight cultures were diluted 2000‐fold in YPD broth. 100 µL of diluted cells was mixed with 100 µL of YPD broth containing each peptide ranging from […] 64 to 0.125 µg mL^−1 at 2‐fold serial dilutions.

[6] = test system: four Gram-negative bacteria, four Gram-positive bacteria, and one fungal pathogen; test: Initial antimicrobial assay of 17 synAQUs; assay type: cell-based; conditions: MIC up to 64 µg mL^−1, Figure 3a
Procedure: as §1, §2, §3

HeLa cells = test: Cytotoxicity assay (CCK-8); assay type: cell-based, human; conditions: 48 h
Procedure: The cytotoxicity of each synAQU peptide was assessed using a cell counting kit‐8 (CCK‐8) assay. HeLa cells were first seeded in a 96‐well flat‐bottom microtiter plate with a density of ∼5000 cells per well and incubated in the DMEM medium supplemented with 10% FBS at 37 °C with 5% CO2 for 24 h. […] All cytotoxicity experiments were done in triplicate (n = 3) and repeated two independent times (n = 2).

[7] = test system: Klebsiella pneumoniae CRKP HS11286; test: microbe, parasite or virus in culture; assay type: cell-based; conditions: CRKP HS11286, 16 h
Procedure: as §1, §2

[8] = test system: Pseudomonas aeruginosa ATCC 9027; test: microbe, parasite or virus in culture; assay type: cell-based; conditions: ATCC 9027, 16 h
Procedure: as §1, §2

[9] = test system: Acinetobacter baumannii ATCC 17978; test: microbe, parasite or virus in culture; assay type: cell-based; conditions: ATCC 17978, 16 h
Procedure: as §1, §2

[10] = test system: Salmonella typhimurium LXX; test: microbe, parasite or virus in culture; assay type: cell-based; conditions: murium LXX, 16 h
Procedure: as §1, §2

[11] = test system: Klebsiella pneumoniae ATCC 13883; test: microbe, parasite or virus in culture; assay type: cell-based; conditions: ATCC 13883, 16 h
Procedure: as §1, §2

[12] = test system: Vibrio alginolyticus XSBZ14; test: microbe, parasite or virus in culture; assay type: cell-based; conditions: 16 h
Procedure: as §1, §2

[13] = test system: Acinetobacter baumannii ATCC 19606; test: microbe, parasite or virus in culture; assay type: cell-based; conditions: ATCC 19606, 16 h
Procedure: as §1, §2

[14] = test system: Salmonella enterica ATCC 14028; test: microbe, parasite or virus in culture; assay type: cell-based; conditions: ATCC 14028, 16 h
Procedure: as §1, §2

[15] = test system: Streptococcus mutans ATCC 25175; test: microbe, parasite or virus in culture; assay type: cell-based; conditions: ATCC 25175, 16 h
Procedure: as §1, §2

[16] = test system: Pseudomonas aeruginosa PAO1; test: microbe, parasite or virus in culture; assay type: cell-based; conditions: PAO1, 16 h
Procedure: as §1, §2

[17] = test system: Enterococcus faecium 35682; test: microbe, parasite or virus in culture; assay type: cell-based; conditions: 35682, 16 h
Procedure: as §1, §2

[18] = test system: Klebsiella pneumoniae NCTC 5056; test: microbe, parasite or virus in culture; assay type: cell-based; conditions: NCTC 5056, 16 h
Procedure: as §1, §2

[19] = test system: Staphylococcus aureus ATCC 6538; test: microbe, parasite or virus in culture; assay type: cell-based; conditions: ATCC 6538, 16 h
Procedure: as §1, §2

Enterococcus faecalis 26 = test: microbe, parasite or virus in culture; assay type: cell-based; conditions: 26, 16 h
Procedure: as §1, §2

[20] = test system: Enterococcus faecalis ATCC 29212; test: microbe, parasite or virus in culture; assay type: cell-based; conditions: ATCC 29212, 16 h
Procedure: as §1, §2

[21] = test system: Staphylococcus aureus ATCC 25923; test: microbe, parasite or virus in culture; assay type: cell-based; conditions: ATCC 25923, 16 h
Procedure: as §1, §2

[22] = test system: Staphylococcus aureus Newman; test: microbe, parasite or virus in culture; assay type: cell-based; conditions: Newman, 16 h
Procedure: as §1, §2

Enterococcus faecalis 28 = test: microbe, parasite or virus in culture; assay type: cell-based; conditions: 28, 16 h
Procedure: as §1, §2

[23] = test system: Acinetobacter baumannii P53; test: microbe, parasite or virus in culture; assay type: cell-based; conditions: Table S11; LB broth, 37 °C, 16 h, n = 2
Procedure: as §1, §2

[24] = test system: Candida albicans ATCC 64550; assay type: cell-based; conditions: ATCC 64550, 16 h
Procedure: as §1, §3

B. subtilis ATCC 23857 = test: MIC assay (broth micro-dilution); assay type: cell-based; conditions: Table S11; LB broth, 37 °C, 16 h, n = 2
Procedure: as §1, §2

Shigella Castellani LXX = test: MIC assay (broth micro-dilution); assay type: cell-based; conditions: Table S11; LB broth, 37 °C, 16 h, n = 2
Procedure: as §1, §2

[25] = Table S11, LB broth, 37 °C, 16 h, n = 2

CCCCCCCCCCCCCC(=O)N[C@H](C)C(=O)N[C@H](C)C(=O)N[C@H](Cc1ccccc1)C(=O)N[C@H](C(=O)N[C@@H](CCCNC(=N)N)C(=O)O)[C@@H](C)O [synAQU1-L] (Myristoyl-[dA][dA][dF]TR-OH)
MIC (μg/mL) S. pyogenes ATCC 19615 [1]: > 64 µg/mL | MIC (μg/mL) K. pneumoniae CRKP 5452 [2]: > 64 µg/mL | MIC (μg/mL) A. baumannii 1104008 [3]: > 64 µg/mL | MIC (μg/mL) S. aureus USA300 [4]: > 64 µg/mL | MIC (μg/mL) C. albicans ATCC 10231 [5]: > 64 µg/mL | activity against all nine tested strains [6]: not active | MIC (μg/mL) Hela (HeLa cells): > 64 µg/mL

CCCCCCCCCCCCCC(=O)N[C@@H](CN)C(=O)N[C@@H]1C(=O)N[C@@H](CC(C)C)C(=O)N[C@@H](CO)C(=O)N[C@@H](CCN)C(=O)N[C@@H](CN)C(=O)N[C@@H](Cc2ccccc2)C(=O)N[C@@H]([C@@H](C)CC)C(=O)N[C@@H](CCCN)C(=O)N[C@@H](CC(N)=O)C(=O)N[C@@H](Cc2ccccc2)C(=O)O[C@@H]1C [synAQU5-C2] (Myristoyl-[Dap]TLS[Dab][Dap]FI[Orn]NF; ester 2-C)
MIC (μg/mL) S. pyogenes ATCC 19615 [1]: > 64 µg/mL | MIC (μg/mL) K. pneumoniae CRKP 5452 [2]: > 64 µg/mL | MIC (μg/mL) A. baumannii 1104008 [3]: > 64 µg/mL | MIC (μg/mL) S. aureus USA300 [4]: > 64 µg/mL | MIC (μg/mL) C. albicans ATCC 10231 [5]: > 64 µg/mL | activity against all nine tested strains [6]: not active | MIC (μg/mL) Hela (HeLa cells): > 64 µg/mL

CCCCCCCCCCCCCC(=O)N[C@@H](CCCN)C(=O)N[C@H](Cc1ccc(O)cc1)C(=O)N[C@@H](C(=O)N[C@@H](C(=O)N[C@H](CCCN)C(=O)N[C@@H](CCCN)C(=O)N[C@@H](C(=O)N[C@H](C(=O)N[C@@H](CC(C)C)C(=O)N[C@H](CCCN)C(=O)N[C@H](C(=O)N[C@@H](C)C(=O)O)[C@@H](C)O)[C@@H](C)CC)C(C)C)[C@H](C)O)C(C)C [synAQU6-L] (Myristoyl-[Orn][dY][dV][dT][dOrn][Orn][dV]IL[dOrn]TA-OH)
MIC Klebsiella pneumoniae CRKP HS11286 [7]: > 64 µg/mL | MIC Pseudomonas aeruginosa ATCC 9027 [8]: 32 µg/mL (≈ 20.7 µM) | MIC Streptococcus pyogenes ATCC 19615 [1, 25]: 2 µg/mL (≈ 1.29 µM) | MIC Acinetobacter baumannii ATCC 17978 [9]: 32 µg/mL (≈ 20.7 µM) | MIC Salmonella typhimurium LXX [10]: > 64 µg/mL | MIC Klebsiella pneumoniae ATCC 13883 [11]: > 64 µg/mL | MIC Vibrio alginolyticus XSBZ14 [12]: > 64 µg/mL | MIC Klebsiella pneumoniae CRKP 5452 [2, 25]: > 64 µg/mL | MIC Acinetobacter baumannii ATCC 19606 [13]: > 64 µg/mL | MIC Acinetobacter baumannii 1104008 [3, 25]: > 64 µg/mL | MIC Salmonella enterica ATCC 14028 [14]: > 64 µg/mL | MIC Streptococcus mutans ATCC 25175 [15]: 4 µg/mL (≈ 2.59 µM) | MIC Staphylococcus aureus USA300 [4, 25]: > 64 µg/mL | MIC Pseudomonas aeruginosa PAO1 [16]: > 64 µg/mL | MIC Enterococcus faecium 35682 [17]: > 64 µg/mL | MIC Klebsiella pneumoniae NCTC 5056 [18]: > 64 µg/mL | MIC Staphylococcus aureus ATCC 6538 [19]: 32 µg/mL (≈ 20.7 µM) | MIC Enterococcus faecalis 26 (Enterococcus faecalis 26): 4 µg/mL (≈ 2.59 µM) | MIC Enterococcus faecalis ATCC 29212 [20]: > 64 µg/mL | MIC Staphylococcus aureus ATCC 25923 [21]: > 64 µg/mL | MIC Staphylococcus aureus Newman [22]: > 64 µg/mL | MIC Enterococcus faecalis 28 (Enterococcus faecalis 28): > 64 µg/mL | MIC Acinetobacter baumannii P53 [23]: > 64 µg/mL | MIC Candida albicans ATCC 10231 ([5]; Table S11, YPD broth, 30 °C, 16 h, n = 2): > 64 µg/mL | MIC Candida albicans ATCC 64550 [24]: > 64 µg/mL | MIC Bacllussubtilis ATCC 23857 (B. subtilis ATCC 23857): 8 µg/mL (≈ 5.17 µM) | MIC Shigella Castellani LXX (Shigella Castellani LXX): > 64 µg/mL

CCCCCCCCCCCCCC(=O)N[C@@H](CCCCN)C(=O)N[C@@H](CCCNC(=N)N)C(=O)N[C@@H](CC(C)C)C(=O)N[C@@H](C)C(=O)N[C@@H](CC(C)C)C(=O)N[C@@H]1C(=O)N[C@@H](CC(=O)O)C(=O)N[C@@H](CC(=O)O)C(=O)N[C@@H](C(C)C)C(=O)N[C@@H](CC(N)=O)C(=O)N[C@@H](C(C)C)C(=O)N[C@H](Cc2ccccc2)C(=O)N[C@@H](CC(N)=O)C(=O)O[C@@H]1C [synAQU7-C6] (Myristoyl-KRLALTDDVNV[dF]N; ester 6-C)
MIC (μg/mL) S. pyogenes ATCC 19615 [1]: > 64 µg/mL | MIC (μg/mL) K. pneumoniae CRKP 5452 [2]: > 64 µg/mL | MIC (μg/mL) A. baumannii 1104008 [3]: > 64 µg/mL | MIC (μg/mL) S. aureus USA300 [4]: > 64 µg/mL | MIC (μg/mL) C. albicans ATCC 10231 [5]: > 64 µg/mL | activity against all nine tested strains [6]: not active | MIC (μg/mL) Hela (HeLa cells): > 64 µg/mL

CCCCCCCCCCCCCC(=O)N[C@@H](CCCCN)C(=O)N[C@@H](CCCNC(=N)N)C(=O)N[C@@H](CC(C)C)C(=O)N[C@@H](C)C(=O)N[C@@H](CC(C)C)C(=O)N[C@H](C(=O)N[C@@H](CC(=O)O)C(=O)N[C@@H](CC(=O)O)C(=O)N[C@H](C(=O)N[C@@H](CC(N)=O)C(=O)N[C@H](C(=O)N[C@H](Cc1ccccc1)C(=O)N[C@@H](CC(N)=O)C(=O)O)C(C)C)C(C)C)[C@@H](C)O [synAQU7-L] (Myristoyl-KRLALTDDVNV[dF]N-OH)
MIC (μg/mL) S. pyogenes ATCC 19615 [1]: > 64 µg/mL | MIC (μg/mL) K. pneumoniae CRKP 5452 [2]: > 64 µg/mL | MIC (μg/mL) A. baumannii 1104008 [3]: > 64 µg/mL | MIC (μg/mL) S. aureus USA300 [4]: > 64 µg/mL | MIC (μg/mL) C. albicans ATCC 10231 [5]: > 64 µg/mL | activity against all nine tested strains [6]: not active | MIC (μg/mL) Hela (HeLa cells): > 64 µg/mL

— publication PMC12677607, “Identification of a Pair of Linear or Cyclic Naturally Inspired Bifunctional Lipopeptide Antibiotics That Overcome Antimicrobial Resistance” (Advanced Science, 2025)
